One may read the IC50 as the midpoint of a concentration-inhibition curve. Read a low IC50 as inhibition by little substance.

Assay type in all cases: cell-based
Details in all cases: 72 h; human CD4+ T cells under TH17-polarizing conditions, 3 days, supernatant ELISA

The subject of assay [1] is IL-17F. The assay can be described thus: Human TH17 Cytokine Inhibition as measured by ELISA (IL-17F). As to the method: (§1) Peripheral blood mononuclear cells (PBMCs) were sourced from freshly prepared leukocyte enriched plasma (buffy coat) from healthy donors (New York Blood Center). PBMCs were isolated by density gradient centrifugation using Ficoll-Paque™ PLUS (GE Healthcare). Human CD4+ T cells were seeded into 96-well plates (5×10^4 cells/well) and activated with plate-bound anti-human (h)-CD3 antibody and soluble h-aCD28 (both at 1 ug/ml; eBioscience) and differentiated into TH17 cells with 20 ng/mL h-IL-6, 5 ng/mL h-TGF-β1, 10 ng/mL h-IL-23 (eBioscience) and 10 ng/mL IL-1β (Miltenyi Biotec) in serum-free TexMACS Medium (Miltenyi Biotec) supplemented with 1% Penicillin/Streptomycin (Lonza) for 3 days. CD4+ T cells propagated under TH17-polarizing conditions were cultured in the presence or absence of various concentrations of compounds with a final concentration of 0.1% DMSO. Supernatants were collected and stored at −20° C. until assayed for IL-17A, IL-17F and IL-21 levels by “Ready-Set-Go” ELISA kits (eBioscience) as per manufacturer's instructions. Endpoint absorbance was read at 450 nm using a microplate reader (Perkin Elmer).
In general terms: In an ELISA, binding on a coated surface is turned into a signal by an enzyme label.

The subject of assay [2] is IL-17A. The assay can be described thus: Human TH17 Cytokine Inhibition as measured by ELISA (IL-17A). How it is done:
as §1

Assay [3] relates to IL-21. Briefly: Human TH17 Cytokine Inhibition as measured by ELISA (IL-21). How it is done: as §1

For `CC1(C)CC(Cn2ccc3cc(-c4cn[nH]c4)ccc32)CN1C(=O)c1ccccc1` (stereo not drawn) [Example 108, (4-((5-(1H-pyrazol-4-yl)-1H-indol-1-yl)methyl)-2,2-dimethylpyrrolidin-1-yl)(phenyl)methanone], the half-maximal inhibitory concentration (IC50) in assay [1], in assay [2] and in assay [3] was less than 10 µM each time.

Take `O=C(Cc1ccccc1)N1CCC(CN2CCc3cc(-c4cn[nH]c4)ccc32)C1` (stereo not drawn) [Example 10, 1-(3-((5-(1H-pyrazol-4-yl)indolin-1-yl)methyl)pyrrolidin-1-yl)-2-phenylethanone]: the IC50 in assay [1], in assay [2] and in assay [3] was less than 10 µM throughout.

As for `O=C(CCc1cccc(F)c1)N1CCC(Cn2ccc3cc(-c4cn[nH]c4)ccc32)CC1` [Example 94, 1-(4-((5-(1H-pyrazol-4-yl)-1H-indol-1-yl)methyl)piperidin-1-yl)-3-(3-fluorophenyl)propan-1-one], the IC50 in assay [1], in assay [2] and in assay [3] was less than 10 µM each time.

On to `CC(O)CC(=O)N1CCC(CN2CCc3cc(-c4cn[nH]c4)ccc32)CC1` (stereo not drawn) [Example 72, 1-(4-((5-(1H-pyrazol-4-yl)indolin-1-yl)methyl)piperidin-1-yl)-3-hydroxybutan-1-one], for which the IC50 in assay [1], in assay [2] and in assay [3] was more than 10 µM throughout.

As to `O=C(Cc1ccccc1)N1CCC(Cn2ccc3cc(-c4cn[nH]c4)ccc32)CC1` [Example 88, 1-(4-((5-(1H-pyrazol-4-yl)-1H-indol-1-yl)methyl)piperidin-1-yl)-2-phenylethanone], the IC50 in assay [1], in assay [2] and in assay [3] was less than 10 µM each time.

In the case of `C[C@@H]1C[C@@H](Cn2ccc3cc(-c4cn[nH]c4)ccc32)CN1C(=O)CCc1ccccc1` (relative stereo) [Example 129, trans-1-(4-((5-(1H-pyrazol-4-yl)-1H-indol-1-yl)methyl)-2-methylpyrrolidin-1-yl)-3-phenylpropan-1-one], the IC50 in assay [1], in assay [2] and in assay [3] was less than 10 µM in each case.

On to `CC(C)CNC(=O)N1CCC(CN2CCc3cc(-c4cnn(C(=O)NCC(C)C)c4)ccc32)CC1` [Example 74D, N-isobutyl-4-((5-(1-(isobutylcarbamoyl)-1H-pyrazol-4-yl)indolin-1-yl)methyl)piperidine-1-carboxamide], for which the IC50 in assay [1], in assay [2] and in assay [3] was less than 10 µM throughout.

With `CC1CC(CN2CCc3cc(-c4cn[nH]c4)ccc32)CN1C(=O)CCc1ccccc1` (stereo not drawn) [Example 26, 1-(4-((5-(1H-pyrazol-4-yl)indolin-1-yl)methyl)-2-methylpyrrolidin-1-yl)-3-phenylpropan-1-one], the IC50 in assay [1], in assay [2] and in assay [3] was less than 10 µM each time.

As to `CC1CC(CN2CCc3cc(-c4cn[nH]c4)ccc32)CN1C(=O)c1ccccc1` (stereo not drawn) [Example 24, (4-((5-(1H-pyrazol-4-yl)indolin-1-yl)methyl)-2-methylpyrrolidin-1-yl)(phenyl)methanone], the IC50 in assay [1], in assay [2] and in assay [3] was less than 10 µM throughout.

For the compound `CC(C)CNC(=O)N1CCC(CN2CCc3cc(-c4cn[nH]c4)ccc32)CC1` [Example 74C, 4-((5-(1H-pyrazol-4-yl)indolin-1-yl)methyl)-N-isobutylpiperidine-1-carboxamide], the IC50 in assay [1] is more than 10 µM; in assay [2], less than 10 µM; in assay [3], more than 10 µM.

For `O=C(Cc1ccccc1)N1CCC(CN2CCc3cc(-c4cn[nH]c4)ccc32)CC1` [Example 40, 1-(4-((5-(1H-pyrazol-4-yl)indolin-1-yl)methyl)piperidin-1-yl)-2-phenylethanone], the concentration for half-maximal inhibition (IC50) in assay [1], in assay [2] and in assay [3] was less than 10 µM in each case.

Values taken from patent publication US20150252022A1, “RETINOIC ACID RECEPTOR-RELATED ORPHAN RECEPTOR MODULATORS AND USES THEREOF” (INNOV17 LLC, priority 2014, published 2015).
